{
  "source": "patent US20160311788A1",
  "about": "“Antifouling Compounds And Use Thereof” (National University of Singapore, priority 2008, published 2016)",
  "key": {"[1]": {"test_system": "marine bacteria strain S10", "experiment": "disc inhibition assay, strain S10", "type": "cell-based, Halobacillus trueperi", "conditions": "Halobacillus trueperi, S10, 24 h", "method_in_brief": "(§1)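 Compounds were applied at 50 μg per 6 mm disc (from 2 mg/ml DMSO stock; DMSO control) onto lawns of Singapore coastal fouling bacteria on marine agar. After overnight incubation in the dark at 35 °C, inhibition-zone diameters were caliper-measured; mean of two replicates.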"}, "[2]": {"test_system": "Pseudomonas aeruginosa (strain LMG 12228; ATCC 15692)", "experiment": "disc inhibition assay, REF 3", "type": "cell-based", "method": "(§2) 13 strains of marine bacteria were isolated from fouling communities located in the coastal waters around Singapore. These were characterized in earlier studies and reported in Teo et al. (U.S. patent application Ser. No. 11/265,833) and Choong et al (in prep). In addition, four reference bacterial strains were added tested: Escherichia coli (Strain K12, ATCC 15222), E. coli (strain DH5a), Pseudomonas aeruginosa (strain LMG 12228; ATCC 15692) and P. putida (strain KT2440; ATCC 47054). All the bacteria were also tested against five antibiotics: ampicillin (AMP), tetracycline (TETR), erythromycin (ERY), chloramphenicol (CHL) and streptomycin (STREP).\n(§3) Disks comprising the compounds to be tested were prepared as follows. The antibacterial assay, the pure compounds were made up to a concentration of 2 mgml^−1 in DMSO. 25 μl of the stock was pipetted onto each 6 mm sterile disc (Macherey-Nagel #484000) to obtain 50 μg of compound per disc. Equivalent volume of DMSO was used inoculated for the control.\n(§4) For all disk inhibition assays, bacterial cultures were grown in marine broth (Pronadisa #1217.00). Sterile swabs dipped into the cultures were used to inoculate Marine Agar plates with a bacterial lawn by smearing the culture over the surface. After inoculating the plates, discs with antibiotics, pharmaceuticals or control blanks were placed on each plate. Each concentration of antibiotic or pharmaceutical was tested with two replicates. After the disks were placed on the agar surface, plates were incubated overnight in the dark at 35° C. After incubation, plates were examined for zones of inhibition or clearing around control and treated disks. The diameter of any zone of clearing or inhibition was measured using Vernier calipers. There were two replicates per treatment, and the average was taken. There was no zone of inhibition around the control blanks in all the assays."}, "[3]": {"test_system": "Escherichia coli (Strain DH5a)", "experiment": "disc inhibition assay, REF 2", "type": "cell-based", "method": "as §2, §3, §4"}, "[4]": {"test_system": "marine bacteria strain S4", "experiment": "disc inhibition assay, strain S4", "type": "cell-based, Bacillus algicola", "conditions": "Guptibacillus algicola, S4, 24 h", "method_in_brief": "as §1"}, "[5]": {"test_system": "marine bacteria strain S29", "experiment": "disc inhibition assay, strain S29", "type": "cell-based, Bacillus hwajinpoensis", "conditions": "Guptibacillus hwajinpoensis, S29, 24 h", "method_in_brief": "as §1"}, "[6]": {"test_system": "Pseudomonas putida (Strain KT2440; BCRC 10459)", "experiment": "disc inhibition assay, REF 4", "type": "cell-based", "method": "as §2, §3, §4"}, "[7]": {"test_system": "marine bacteria strain S18", "experiment": "disc inhibition assay, strain S18", "type": "cell-based, Microbacterium esteraromaticum", "conditions": "Microbacterium esteraromaticum, S18, 24 h"}, "[8]": {"test_system": "marine bacteria strain S16", "experiment": "disc inhibition assay, strain S16", "type": "cell-based, Pseudoalteromonas piscicida", "conditions": "Pseudoalteromonas piscicida, S16, 24 h", "method_in_brief": "as §1"}, "[9]": {"test_system": "marine bacteria strain S27", "experiment": "disc inhibition assay, strain S27", "type": "cell-based, Tenacibaculum lutimaris", "method_in_brief": "as §1"}, "[10]": {"test_system": "marine bacteria strain S30", "experiment": "disc inhibition assay, strain S30", "type": "cell-based, Bacillus borophilicus", "conditions": "Bacillus, S30, 24 h", "method_in_brief": "as §1"}, "[11]": {"test_system": "marine bacteria strain S28", "experiment": "disc inhibition assay, strain S28", "type": "cell-based, Arthrobacter protophormial", "conditions": "Arthrobacter, S28, 24 h", "method_in_brief": "as §1"}, "[12]": {"test_system": "marine bacteria strain S3", "experiment": "disc inhibition assay, strain S3", "type": "cell-based, Erythrobacter aquimaris", "method_in_brief": "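Antibacterial susceptibility was measured by agar disc diffusion. Compounds dissolved in DMSO were applied to 6 mm sterile discs and laid on Marine Agar lawns of a Singapore coastal marine bacterium cultured in marine broth. After overnight dark incubation at 35° C, clearing zone diameters were measured with Vernier calipers, and the two replicates were averaged.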"}, "[13]": {"test_system": "marine bacteria strain S17", "experiment": "disc inhibition assay, strain S17", "type": "cell-based, Gordonia terrae", "conditions": "Gordonia terrae, S17, 24 h", "method_in_brief": "as §1"}, "[14]": {"test_system": "marine bacteria strain S14", "experiment": "disc inhibition assay, strain S14", "type": "cell-based, Vibrio probioticus", "conditions": "Vibrio, S14, 24 h"}, "[15]": {"test_system": "Escherichia coli (Strain K12; ATCC 15222)", "experiment": "disc inhibition assay, REF 1", "type": "cell-based", "method": "as §2, §3, §4"}, "[16]": {"test_system": "marine bacteria strain S1", "experiment": "disc inhibition assay, strain S1", "type": "cell-based, Rhodovulum iodosum", "conditions": "Rhodovulum iodosum, S1", "method_in_brief": "as §1"}, "[17]": {"test_system": "marine bacteria strain S9", "experiment": "disc inhibition assay, strain S9", "type": "cell-based, Bacillus algicola", "conditions": "Guptibacillus algicola, S9, 24 h", "method_in_brief": "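Read-out is the diameter of the zone of clearing around each disc, measured with Vernier calipers and averaged over duplicates. Each disc carried 50 μg of compound applied from a 2 mg/ml DMSO stock onto a Marine Agar bacterial lawn, incubated overnight at 35° C in darkness.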"}},
  "data": [
    {"smiles": "[H]/N=C(/N)N[C@H]1[C@H](O)[C@@H](O)[C@H](O[C@@H]2O[C@@H](C)[C@](O)(C=O)[C@H]2O[C@@H]2O[C@@H](CO)[C@H](O)[C@@H](O)[C@@H]2NC)[C@@H](N/C(N)=N\\[H])[C@@H]1O", "note": "[STREP, Streptomycin, reference compound]", "values": [
      {"measurement": "zone of inhibition at 10 µg/disc", "setting": "[1]; strain 10, 10 ug", "result": "2 to 5", "unit": "mm"},
      {"measurement": "zone of inhibition at 25 µg/disc", "setting": "[1]; strain 10, 25 ug", "result": "2 to 5", "unit": "mm"},
      {"measurement": "zone of inhibition", "setting": "[2]; REF 3, 10 ug", "result": "+ (2-5 mm zone of inhibition around each disk was observed.)"},
      {"measurement": "zone of inhibition", "setting": "[2]; REF 3, 25 ug", "result": "++ (5-10 mm zone was observed.)"},
      {"measurement": "zone of inhibition", "setting": "[3]; REF 2, 10 ug", "result": "−"},
      {"measurement": "zone of inhibition", "setting": "[3]; REF 2, 25 ug", "result": "−"},
      {"measurement": "zone of inhibition at 10 µg/disc", "setting": "[4]; strain 4, 10 ug", "result": "2 to 5", "unit": "mm"},
      {"measurement": "zone of inhibition at 25 µg/disc", "setting": "[4]; strain 4, 25 ug", "result": "5 to 10", "unit": "mm"},
      {"measurement": "zone of inhibition at 10 µg/disc", "setting": "[5]; strain 29, 10 ug", "result": "2 to 5", "unit": "mm"},
      {"measurement": "zone of inhibition at 25 µg/disc", "setting": "[5]; strain 29, 25 ug", "result": "5 to 10", "unit": "mm"},
      {"measurement": "zone of inhibition", "setting": "[6]; REF 4, 10 ug", "result": "+ (2-5 mm zone of inhibition around each disk was observed.)"},
      {"measurement": "zone of inhibition", "setting": "[6]; REF 4, 25 ug", "result": "++ (5-10 mm zone was observed.)"},
      {"measurement": "zone of inhibition at 10 µg/disc", "setting": "[7]; strain 18, 10 ug", "result": "2 to 5", "unit": "mm"},
      {"measurement": "zone of inhibition at 25 µg/disc", "setting": "[7]; strain 18, 25 ug", "result": "5 to 10", "unit": "mm"},
      {"measurement": "zone of inhibition at 10 µg/disc", "setting": "[8]; strain 16, 10 ug", "result": "2 to 5", "unit": "mm"},
      {"measurement": "zone of inhibition at 25 µg/disc", "setting": "[8]; strain 16, 25 ug", "result": "5 to 10", "unit": "mm"},
      {"measurement": "zone of inhibition", "setting": "[9]; strain 27, 10 ug", "result": "−"},
      {"measurement": "zone of inhibition", "setting": "[9]; strain 27, 25 ug", "result": "−"},
      {"measurement": "zone of inhibition at 10 µg/disc", "setting": "[10]; strain 30, 10 ug", "result": "2 to 5", "unit": "mm"},
      {"measurement": "zone of inhibition at 25 µg/disc", "setting": "[10]; strain 30, 25 ug", "result": "5 to 10", "unit": "mm"},
      {"measurement": "zone of inhibition at 10 µg/disc", "setting": "[11]; strain 28, 10 ug", "result": "2 to 5", "unit": "mm"},
      {"measurement": "zone of inhibition at 25 µg/disc", "setting": "[11]; strain 28, 25 ug", "result": "5 to 10", "unit": "mm"},
      {"measurement": "zone of inhibition", "setting": "[12]; strain 3, 10 ug", "result": "−"},
      {"measurement": "zone of inhibition", "setting": "[12]; strain 3, 25 ug", "result": "−"},
      {"measurement": "zone of inhibition at 10 µg/disc", "setting": "[13]; strain 17, 10 ug", "result": "2 to 5", "unit": "mm"},
      {"measurement": "zone of inhibition at 25 µg/disc", "setting": "[13]; strain 17, 25 ug", "result": "5 to 10", "unit": "mm"},
      {"measurement": "zone of inhibition at 10 µg/disc", "setting": "[14]", "result": "2 to 5", "unit": "mm"},
      {"measurement": "zone of inhibition at 25 µg/disc", "setting": "[14]", "result": "2 to 5", "unit": "mm"},
      {"measurement": "zone of inhibition", "setting": "[15]; REF 1, 10 ug", "result": "+ (2-5 mm zone of inhibition around each disk was observed.)"},
      {"measurement": "zone of inhibition", "setting": "[15]; REF 1, 25 ug", "result": "++ (5-10 mm zone was observed.)"},
      {"measurement": "zone of inhibition at 10 µg/disc", "setting": "[16]; strain 1, 10 ug", "result": "5 to 10", "unit": "mm"},
      {"measurement": "zone of inhibition at 25 µg/disc", "setting": "[16]; strain 1, 25 ug", "result": "> 10", "unit": "mm"},
      {"measurement": "zone of inhibition at 10 µg/disc", "setting": "[17]; strain 9, 10 ug", "result": "2 to 5", "unit": "mm"},
      {"measurement": "zone of inhibition at 25 µg/disc", "setting": "[17]; strain 9, 25 ug", "result": "2 to 5", "unit": "mm"}
    ]}
  ]
}
